The values below come from PubChem BioAssay (NCI).

Among the test systems are M14 melanoma; OVCAR-5 ovarian; OVCAR-8 ovarian; SK-MEL-2 melanoma; PC-3 prostate; UO-31 renal; SK-MEL-5 melanoma; HCC-2998 colon; SR leukemia; RPMI-8226 leukemia.
What all share (test): DTP human tumour cell line panel, 48 h

SMILES strings stand for the structures.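 Each compound was tested at five concentrations against cells in 96-well plates for 48 hours. GI50 = concentration required for 50% inhibition of growth. TGI denotes the concentration required for complete inhibition of growth.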

For the compound `N#Cc1ccccc1C#C/C=C\C#Cc1cnccn1`, the GI50 in the experiment on M14 melanoma was 5.78 µM; with OVCAR-5 ovarian, 6.09 µM; in the experiment on OVCAR-8 ovarian it was 33.9 µM; in the experiment on SK-MEL-2 melanoma, 8.34 µM; with PC-3 prostate, 30.9 µM; in the experiment with UO-31 renal it was 44 µM. Moreover, the GI50 is 17 µM in the experiment with SK-MEL-5 melanoma, 4.79 µM in the experiment with HCC-2998 colon, over 20.7 µM in the experiment on SR leukemia and 2.71 µM with RPMI-8226 leukemia. For the same compound, the TGI in the experiment on M14 melanoma is 13.8 µM; in the experiment with OVCAR-5 ovarian it was over 49.9 µM; in the experiment with OVCAR-8 ovarian, 98.4 µM; in the experiment with SK-MEL-2 melanoma, over 100 µM; in the experiment with PC-3 prostate, over 100 µM; with UO-31 renal, over 100 µM. Also, the TGI was 45.4 µM with SK-MEL-5 melanoma, 28.2 µM with HCC-2998 colon, over 79.7 µM in the experiment with SR leukemia and over 21.5 µM in the experiment on RPMI-8226 leukemia.
`CCOC(=O)C(Cc1ccc(N(CCCl)CCCl)cc1)NC(=O)C(CC(C)C)NC(C)=O` (stereo not given): the GI50 in the experiment on M14 melanoma was 0.568 µM; in the experiment on OVCAR-5 ovarian it was 3.18 µM; in the experiment on OVCAR-8 ovarian, 1.02 µM; with SK-MEL-2 melanoma it was 2.61 µM; with PC-3 prostate, 1.3 µM; with UO-31 renal, 0.512 µM. The GI50 is 2.45 µM with SK-MEL-5 melanoma, 1.82 µM with HCC-2998 colon, 0.0344 µM with SR leukemia and 1.96 µM with RPMI-8226 leukemia. For the same compound, the TGI with M14 melanoma is 2.19 µM; in the experiment on OVCAR-5 ovarian it was 12 µM; in the experiment on OVCAR-8 ovarian, 5.18 µM; in the experiment with SK-MEL-2 melanoma it was 5.13 µM; in the experiment on PC-3 prostate, 5.4 µM; in the experiment on UO-31 renal it was 2.91 µM. In addition, the TGI was found to be 9.82 µM with SK-MEL-5 melanoma, 5.95 µM in the experiment on HCC-2998 colon, 6.89 µM in the experiment with SR leukemia and 6.7 µM in the experiment on RPMI-8226 leukemia.
As for `CN(C)CCCn1c2c(c3ccc([N+](=O)[O-])cc3c1=O)C(=O)c1ccccc1-2`, the GI50 in the experiment with M14 melanoma was 8.54 µM; in the experiment on OVCAR-5 ovarian, 15.3 µM; in the experiment with OVCAR-8 ovarian, 17 µM; in the experiment with SK-MEL-2 melanoma it was over 100 µM; in the experiment on PC-3 prostate, 6.06 µM; with UO-31 renal, 4.28 µM. Besides, the GI50 in the experiment on SK-MEL-5 melanoma was 3.79 µM; in the experiment with HCC-2998 colon, 15.3 µM; in the experiment with SR leukemia it was 1.98 µM; in the experiment on RPMI-8226 leukemia, 3.46 µM. The TGI was over 100 µM in the experiment with M14 melanoma; 49 µM in the experiment with OVCAR-5 ovarian; 49.4 µM in the experiment on OVCAR-8 ovarian; over 100 µM with SK-MEL-2 melanoma; over 100 µM in the experiment with PC-3 prostate; 47.8 µM in the experiment on UO-31 renal. Further, the TGI with SK-MEL-5 melanoma was 16.6 µM; in the experiment with HCC-2998 colon, 41.7 µM; with SR leukemia, over 100 µM; with RPMI-8226 leukemia, 19.3 µM.
`Cn1c(N)cc(=O)nc1N`: the TGI with M14 melanoma, in the experiment on OVCAR-5 ovarian, in the experiment on OVCAR-8 ovarian, in the experiment on SK-MEL-2 melanoma, in the experiment with PC-3 prostate and in the experiment on UO-31 renal was over 100 µM each time. Also, the TGI with SK-MEL-5 melanoma, in the experiment on HCC-2998 colon, with SR leukemia and in the experiment on RPMI-8226 leukemia was over 100 µM throughout.
Regarding `C=CC(=O)N1CC[C@@H](Oc2nc(Nc3ccc(N4CCC(N5CCN(C)CC5)CC4)cc3)c(C(N)=O)nc2CC)C1`, the GI50 in the experiment with M14 melanoma, in the experiment on OVCAR-5 ovarian, in the experiment on OVCAR-8 ovarian, in the experiment with SK-MEL-2 melanoma, in the experiment with PC-3 prostate and in the experiment with UO-31 renal was over 100 µM in each case. Besides, the GI50 in the experiment with SK-MEL-5 melanoma, in the experiment with HCC-2998 colon, in the experiment with SR leukemia and with RPMI-8226 leukemia was over 100 µM in each case. Also, the TGI in the experiment on M14 melanoma, in the experiment with OVCAR-5 ovarian, in the experiment with OVCAR-8 ovarian, with SK-MEL-2 melanoma, with PC-3 prostate and in the experiment on UO-31 renal was over 100 µM throughout. Also, the TGI with SK-MEL-5 melanoma, in the experiment with HCC-2998 colon, in the experiment with SR leukemia and in the experiment with RPMI-8226 leukemia was over 100 µM throughout.
`CC[N+]1(C)CCC(O)(/C=C/c2ccccc2)C(C(=O)/C=C/c2ccccc2)C1` (stereo not given): the TGI with M14 melanoma is 25.8 µM; in the experiment on OVCAR-5 ovarian, 36.1 µM; in the experiment with OVCAR-8 ovarian, 43 µM; in the experiment on SK-MEL-2 melanoma, 39.5 µM; with PC-3 prostate it was 29.6 µM; with UO-31 renal, 29.5 µM. In addition, the TGI in the experiment with SK-MEL-5 melanoma is 32.7 µM; in the experiment with HCC-2998 colon, 30.8 µM; with SR leukemia it was 6.68 µM; in the experiment on RPMI-8226 leukemia it was 5.76 µM.
With `CCS(=O)(=O)Nc1ccc(Oc2ccc(F)cc2F)c(-c2cn(C)c(=O)c3[nH]ccc23)c1`, the GI50 with M14 melanoma was under 0.0138 µM; in the experiment with OVCAR-5 ovarian, 1.29 µM; in the experiment on OVCAR-8 ovarian it was 0.253 µM; in the experiment with SK-MEL-2 melanoma it was 0.761 µM; in the experiment on PC-3 prostate, 0.0656 µM; in the experiment with UO-31 renal it was under 0.01 µM. Also, the GI50 in the experiment on SK-MEL-5 melanoma is 0.0727 µM; with HCC-2998 colon, 0.0342 µM; with SR leukemia, 0.0444 µM; in the experiment on RPMI-8226 leukemia, under 0.0232 µM. In addition, the TGI with M14 melanoma came to 17 µM; with OVCAR-5 ovarian it was 34.7 µM; with OVCAR-8 ovarian, 43.1 µM; in the experiment on SK-MEL-2 melanoma, 15.9 µM; with PC-3 prostate it was 49.4 µM; in the experiment on UO-31 renal it was 12 µM. Also, the TGI worked out at 7.29 µM with SK-MEL-5 melanoma, 1.38 µM in the experiment with HCC-2998 colon, 30.7 µM in the experiment with SR leukemia and 17.5 µM in the experiment on RPMI-8226 leukemia.
As for `COc1ccc(C2CC(c3cccc(Nc4ccnc5cc(Cl)ccc45)c3)=NN2c2ccc(Cl)cc2)cc1` (stereo not given), the GI50 with M14 melanoma was 0.752 µM; in the experiment on OVCAR-5 ovarian it was 15.6 µM; in the experiment with OVCAR-8 ovarian it was 5 µM; with SK-MEL-2 melanoma it was 11.5 µM; with PC-3 prostate, 1.18 µM; in the experiment with UO-31 renal, 1.87 µM. For the same compound, the GI50 in the experiment with SK-MEL-5 melanoma is 3.01 µM; in the experiment on HCC-2998 colon it was 3.41 µM; in the experiment on SR leukemia it was 4.29 µM; with RPMI-8226 leukemia, 4.7 µM. In addition, the TGI in the experiment on M14 melanoma was determined as 11 µM; in the experiment on OVCAR-5 ovarian, 87 µM; with OVCAR-8 ovarian it was 91 µM; with SK-MEL-2 melanoma, 38.9 µM; with PC-3 prostate, 64.5 µM; in the experiment with UO-31 renal, 31.3 µM. In addition, the TGI with SK-MEL-5 melanoma worked out at 10.2 µM; in the experiment with HCC-2998 colon it was 15.1 µM; with SR leukemia it was 32.5 µM; with RPMI-8226 leukemia it was 31.9 µM.

The term GI50 denotes the concentration giving 50% growth inhibition. For orientation: TGI means the concentration giving total growth inhibition.
